From patent publication US20200078290A1, “Cosmetic Composition Comprising Extract Of Medicinal Herbs As Active Ingredient” (LG Household & Health Care Ltd., priority 2016, published 2020) come the findings set out here.

The test system of assay [1] is human-derived fibroblasts. The assay can be described thus: Promotion of type 1 collagen synthesis in human fibroblasts (PICP EIA kit). The class given is cell-based. Conditions: positive control, 52.85 ppm. How it is done:
Seven kinds of extracts obtained in Preparation Example 1 were added to culture media of human-derived fibroblasts in order to confirm the effect of promoting type I collagen synthesis at the cellular level. The synthesized collagen was measured and quantitated using a PICP EIA kit (Procollagen Type I C-Peptide Enzyme Immuno Assay Kit). In order to measure the amount of synthesized collagen, the extracts of Examples 1 to 7 were added to the culture media (DMEM medium) of the fibroblasts at final concentrations of 1,000 ppm and 10,000 ppm, and cultured for 48 hours. The culture broth was collected and the degree of type 1 collagen synthesis was measured with a PICP EIA kit at 450 nm using a spectrophotometer. For the comparison of the effects, the degree of collagen synthesis was measured in the same manner for the culture medium of the fibroblasts not treated with the extract (negative control) and the culture medium (positive control) in which vitamin C was added to a final concentration of 52.85 ppm. The rate of increase in collagen production was calculated as a ratio of collagen production relative to negative control, and the results are shown in Table 3 below. The experiments were conducted four times and the results are expressed as an average value.

The next assay concerns RAW264.7 cell line. In words: Inhibition of NO production in LPS-stimulated RAW264.7 cells (GRIESS method). The conditions noted are these: positive control, 10 ppm, RAW264.7, LPS. The class given is cell-based, mice. How it is done:
In order to confirm the anti-inflammatory effect and the skin trouble-improving effect of the seven extracts obtained in Preparation Example 1, an experiment on the inhibition of nitrogen monoxide (NO) formation was conducted by the GRIESS method using RAW264.7 cell line (ATCC number: CRL-2278).
Specifically, RAW264.7 cells, which were macrophages of mice, were subcultured several times, and the cultured cells were put into a 24-well plate at a density of 3×10^5 […], and cultured for 24 hours. Subsequently, the cells were replaced with cell culture media containing the above-mentioned 7 kinds of extracts diluted to concentrations of […]. […] 100 μL of the supernatant was collected and transferred to a 96-well plate, and 100 μL of GRIESS solution was added thereto and reacted at room temperature for 10 minutes, and then the absorbance at 540 nm was measured to determine the NO inhibitory effect of the extracts. The NO production inhibition rate (%) was calculated using the following Calculation Equation 2, and the results are shown in Table 6. The experiments were each carried out three times, and the results are expressed as an average value.
Inhibition Rate of NO Production (%)={(Absorbance of negative control−Absorbance of each extract)/Absorbance of negative control}×100 [Calculation Equation 2]
A general note: The Griess reaction detects nitrite, a stable product of nitric oxide.

Take `O=C1O[C@H]([C@@H](O)CO)C(O)=C1O` [Vitamin C, vitamin C]: the “Increased rate (collagen production relative to negative control)” value in assay [1] was 64.3%. Further, the “Production amount of type 1 collagen” value in assay [1] (average of 4) came out at 246.8 ng/mL. For the compound `CNC(=N)NCCC[C@H](N)C(=O)O` [L-NMMA, L-NG-monomethylarginine], the “Inhibition Rate of NO Production” value with RAW264.7 cell line came out at 41.0%.
